According to patent US20250361268A1, “NOVEL ANTI-INFLAMMATORY PEPTIDE AND USE THEREOF” (NOVACELL TECHNOLOGY INC., priority 2022, published 2025):
Peptide text beside a SMILES is read from it.

Legend:
FPR1 = biological target: T1, FPR1 (Homo sapiens, UniProt P21462); assay: Change in calcium activity by peptide, FPR1 activation effect; format: cell-based; details: calcium activity (Fura-2), graded per Table 3, read-out: EC50 for [Ca^2+] FPR1
T1 sequence (P21462 1-350): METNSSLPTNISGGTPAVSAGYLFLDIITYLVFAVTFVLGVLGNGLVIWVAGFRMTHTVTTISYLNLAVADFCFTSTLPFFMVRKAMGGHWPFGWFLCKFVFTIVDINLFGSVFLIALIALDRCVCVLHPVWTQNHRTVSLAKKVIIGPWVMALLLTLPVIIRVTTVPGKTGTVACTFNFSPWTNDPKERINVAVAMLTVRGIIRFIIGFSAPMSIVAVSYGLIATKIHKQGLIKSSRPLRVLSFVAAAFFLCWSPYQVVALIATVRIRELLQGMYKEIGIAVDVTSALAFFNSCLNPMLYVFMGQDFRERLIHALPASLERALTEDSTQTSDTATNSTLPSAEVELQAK
In short: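 Calcium flux induced by peptide addition was monitored on a FlexStation 3 plate reader. Before this, cells seeded a day earlier (3×10^5/well) took up the Fura-2 dye for 1 h at 37 °C plus 30 min dark at room temperature.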

RAW264.7 cell line = assay: Cytokine inhibition ability: LPS-induced cytokine gene expression in RAW264.7 macrophages; format: cell-based, mouse; details: grade of reduction rate of gene expression, peptide 100 nM, LPS 200 ng/mL, 6 hours
Experimental: The present inventors observed the cytokine inhibition ability of the immunomodulatory peptide candidates prepared according to one example of the present invention. Specifically, to confirm whether the peptides reduce inflammatory responses in cells, changes in cytokine gene expression in cells upon inflammation was measured.
The present inventors used a RAW264.7 cell line, that is, mouse macrophages, and used lipopolysaccharide (LPS; Sigma-Aldrich, #L2630), which is the main component of a gram-negative bacterial cell wall, as a material causing an inflammatory response. A peptide that had been dissolved in water at 100 μM was prepared.
In the present experiment, the cells were cultured in a DMEM (Lonza, #BE12-604F) containing 10% FBS and 1% penicillin-streptomycin under conditions of 37° C. and 5% CO2.
The cells were plated in a 24-well plate (Costar, #3603) at a density of 2.5×10^5 cells/well. After 24 hours, the prepared cells were treated with the peptide at 100 nM. After incubation at 37° C. for 30 minutes, to induce inflammation, 200 ng/mL of LPS was treated. After incubation at 37° C. for 6 hours, the cells in a medium-free state were treated with TRIzol™ (Invitrogen, #15596018) to lyse the cells. Through the given experimental method, RNA was obtained, cDNA was produced using a reverse transcriptase (Promega, #M1705). Afterward, a cytokine expression level was measured using SYBR Green (Enzynomics, RT530) and mouse primers of each inflammatory cytokine gene (TNFα, IL-6, and IL-1β).

FPR2 = biological target: T2, FPR2 (Homo sapiens, UniProt P25090); assay: Change in calcium activity by peptide (Fura-2) in RBL cells overexpressing FPR2; format: cell-based; details: calcium activity (Fura-2), graded per Table 3, read-out: EC50 for [Ca^2+] FPR2
T2 construct: expressed in transfected cells; host or cells: RBL cells (RBL-FPR2)
T2 sequence (P25090 1-351): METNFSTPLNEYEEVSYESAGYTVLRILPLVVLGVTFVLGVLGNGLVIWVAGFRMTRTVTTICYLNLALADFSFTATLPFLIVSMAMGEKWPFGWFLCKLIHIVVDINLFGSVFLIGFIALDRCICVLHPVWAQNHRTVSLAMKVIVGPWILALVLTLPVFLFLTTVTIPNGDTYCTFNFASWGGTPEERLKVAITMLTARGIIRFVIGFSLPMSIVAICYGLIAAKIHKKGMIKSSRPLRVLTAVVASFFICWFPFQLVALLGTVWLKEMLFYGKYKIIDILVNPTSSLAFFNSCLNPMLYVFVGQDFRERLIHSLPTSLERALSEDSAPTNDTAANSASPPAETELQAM
In short: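 Peptide-induced intracellular calcium change measured by Fura-2 fluorescence on a plate reader. Cells: RBL line overexpressing FPR2, dye-loaded 1 h at 37 °C then 30 min at RT in dark; peptides from 0.5 mM water/50% DMSO stocks, diluted in HBSS with 20 mM HEPES.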

Row | EC50 (FPR1) [nM] | EC50 (FPR2) [nM] | SMILES | Cytokine inhibition ability IL-1β (RAW264.7 cell line) | Cytokine inhibition ability IL-6 (RAW264.7 cell line) | Cytokine inhibition ability TNFα (RAW264.7 cell line)
1 | > 10000 | < 10 | CSCC[C@H](NC(=O)[C@@H](N)CCCNC(=N)N)C(=O)N[C@@H](CCCNC(=N)N)C(=O)N[C@@H](Cc1ccc(O)cc1)C(=O)N[C@@H](Cc1c[nH]c2ccccc12)C(=O)N[C@@H](Cc1ccc(O)cc1)C(=O)N[C@H](CCSC)C(N)=O [Peptide 81] (HELM PEPTIDE1{R.M.R.Y.W.Y.[dM].[am]}$$$$V2.0) | A (81%-100%) | C (41%-60%) | A (81%-100%)
2 | > 10000 | 11 to 100 | CCCC(=O)N[C@@H](CCSC)C(=O)N[C@@H](CCCCN)C(=O)N[C@@H](Cc1ccc(O)cc1)C(=O)N[C@@H](CCCCN)C(=O)N1CCC[C@H]1C(=O)N[C@H](CCSC)C(N)=O [Peptide 72] (HELM PEPTIDE1{[CCCC(=O)[*:2]].M.K.Y.K.P.[dM].[am]}$$$$V2.0) | B (61%-80%) | D (21%-40%) | B (61%-80%)
3 | > 10000 | < 10 | CSCC[C@H](NC(=O)[C@H](CCCNC(=N)N)NC(C)=O)C(=O)N[C@@H](CCCNC(=N)N)C(=O)N[C@@H](Cc1ccc(O)cc1)C(=O)N[C@@H](Cc1c[nH]c2ccccc12)C(=O)N[C@@H](Cc1ccc(O)cc1)C(=O)N[C@H](CCSC)C(N)=O [Peptide 82] (HELM PEPTIDE1{[ac].R.M.R.Y.W.Y.[dM].[am]}$$$$V2.0) | B (61%-80%) | D (21%-40%) | A (81%-100%)
